According to BindingDB's records for doi:10.7270/Q25H7DV5 (Burnham Center For Chemical Genomics, 2011):

Biological target: DNA dC->dU-editing enzyme APOBEC-3G (Homo sapiens, UniProt Q9HC16)
Assay: inhibition of APOBEC3G ssDNA deamination – biochemical, fluorescence, single-stranded DNA substrate, SAR follow-up (AID 602136)
Details: 25 °C

DNA dC->dU-editing enzyme APOBEC-3G, sequence (Q9HC16 whole entry): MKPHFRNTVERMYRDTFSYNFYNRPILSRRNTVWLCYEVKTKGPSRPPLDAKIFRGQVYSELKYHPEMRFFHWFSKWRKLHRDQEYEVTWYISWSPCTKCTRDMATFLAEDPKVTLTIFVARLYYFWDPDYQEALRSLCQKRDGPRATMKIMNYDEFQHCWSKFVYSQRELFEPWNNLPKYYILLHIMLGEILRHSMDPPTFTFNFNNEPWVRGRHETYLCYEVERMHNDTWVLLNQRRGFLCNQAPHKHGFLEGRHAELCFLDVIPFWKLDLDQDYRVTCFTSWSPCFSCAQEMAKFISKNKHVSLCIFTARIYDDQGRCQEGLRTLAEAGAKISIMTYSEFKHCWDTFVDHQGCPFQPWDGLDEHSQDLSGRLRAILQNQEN

| SMILES | IC50 |
| --- | --- |
| CCN1C(SCC(=O)NCc2ccco2)=NNC1=C1C=CC=CC1=O | > 99 µM |
| CC1(C)Oc2ccc3ccc(=O)oc3c2C(CN=O)=C1Cl [9-chloro-2-keto-8,8-dimethyl-pyrano[2,3-f]chromene-10-carbaldehyde oxime] | > 99 µM |
